Results published in US20060127400A1, “Activation of regulatory T cells by alpha-melanocyte stimulating hormone” (THE SCHEPENS EYE RESEARCH INSTITUTE, INC., priority 1999, published 2006).
“Also recorded” adds a separate entry of the source. No end group written: not given here.

Experiments:
CD25+ CD4+ T cells = test: two-color flow cytometry for CD4 and CD25 on activated primed T cells; format: cell-based, mouse; conditions: TCR-stimulated in the presence or absence of α-MSH 30 pg/ml, 24 hours
Procedure: In another example, for immunostaining and fluorescence-activated cell sorting, T cells (2×10^6 cells) from 24 hour cultures of the α-MSH-treated activated T cells were centrifuged and washed once in PBS/BSA buffer (10 mM PBS, 3% BSA). The cells were resuspended in 50 μl of PBS/BSA buffer containing 2 μg of PE-conjugated anti-CD4 and FITC-conjugated anti-CD25 antibodies and incubated for 30 minutes room temperature. The cells were centrifuged, resuspended in 1 ml of PBS/BSA buffer, and washed two times. The stained cells were sorted by a Coulter ELITE cell sorter calibrated for two color fluorescence. The cells were sorted into two populations, CD25^+ CD4^+ cells and the remaining cells (all CD4^− cells plus CD25^−CD4^+ cells). The sorted cells were used immediately in the in vitro regulatory T cell assay.
α-MSH induced CD25^+ CD4^+ regulatory T cells. To characterize the regulatory T cells induced by α-MSH, we assayed through flow cytometry the possibility that α-MSH induces CD25^+ (IL-2Rα) CD4^+ regulatory T cells. […] The cells were analyzed by two-color flow cytometry after staining with anti-CD4 and anti-CD25. Presented is a representative dot plot of the flow cytometry seen in four separate staining experiments. (B) Only T cells activated in the presence of α-MSH, were stained and sorted based on the coexpression of CD4 and CD25. […]

[1] = test system: experimental autoimmune uveitis; test: EAU, α-MSH injected i.v. at the time of peak retinal inflammation; format: in vivo, mouse
EAU = conditions: direct injections into eyes of mice; cited from earlier work
primed T cells = test: proliferation of TCR-stimulated primed T cells (3H-thymidine incorporation); format: cell-based, mouse (BALB/c); conditions: primed T cells + anti-CD3ε 2C11, α-MSH present, 3H-thymidine at 24 h, counted at 48 h
primed Th1 cells = test: in vitro regulatory T cell activity assay (IFN-γ of freshly activated primed Th1 cells in coculture); format: cell-based, mouse (BALB/c)
Procedure: Assay For In Vitro Regulatory T Cell Activity. The α-MSH-treated TCR-stimulated T cells, as described above, were cultured for 48 hours. The plate was spun down at 250×g for 10 minutes and supernatant discarded. Freshly isolated, enriched in vivo primed Th1 cells (4×10^6 cells/ml) mixed with 2C11 (1 μg/ml) were added (200 μl) to the wells of the α-MSH pre-treated, TCR-stimulated T cells and incubated for 48 hours. The culture supernatant was assayed for IFN-γ by sandwich ELISA. For long term cultures, primed T cells were TCR-stimulated in the presence of α-MSH for 48 hours. The plate was centrifuged and supernatant was exchanged for 200 μl of 2C11 (1 μg/ml) in fresh media, no x-MSH. The cultures were incubated for 72 hours and the conditioned media was again exchanged for fresh media and 2C11 antibody. The cultures were incubated for an additional 48 hours, centrifuged, supernatant discarded, and added were fresh in vivo primed Th1 cells and 2C11 antibody. Soluble TGF-β receptor II (sTGF-βRII, R&D Systems) was added to some of the cultures. These cultures were incubated for 48 hours and the culture supernatant was assayed for IFN-γ by sandwich ELISA.
Primed T cells (4×10^5 cells) were enriched and activated with anti-CD3 in the presence (α-MSH+anti-CD3) or absence (+anti-CD3) of α-MSH (30 pg/ml). After 48 hours of incubation the cells were mixed with freshly enriched primed Th1 cells (4×10^5 cells) and anti-CD3 antibody and cultured for 48 hours. The culture supernatant was assayed for IFN-γ by sandwich ELISA. Results are presented as IFN-γ pg/ml±SEM of eight independent experiments.
In addition, T cells initial TCR-stimulated in the presence of α-MSH and subsequently restimulated twice (Day 2 and Day 5) with anti-TCR antibody in the absence of α-MSH, still suppressed IFN-γ production by freshly activated primed Th1 cells (FIG. 6). […] Primed T cells (4×10^5 cells) were enriched and activated with anti-CD3 antibody in the presence of 30 pg/ml α-MSH (α-MSH+anti-CD3) or absence of α-MSH (+anti-CD3). After 48 hours of incubation the cells were centrifuged and resuspended in fresh media with anti-CD3 antibodies and incubated for 72 hours (day 5). The cells were again washed and re-stimulated with anti-CD3 and incubated for an additional 48 hours (day 7). After the final incubation the treated T cells (4×10^5 cells) were mixed with freshly enriched primed Th1 cells (4×10^5 cells) and anti-CD3 antibody and cultured for 48 hours. The culture supernatant was assayed for IFN-γ by sandwich ELISA. Results are presented as IFN-γ pg/ml±SEM of eight independent experiments. […] Therefore, α-MSH mediates induction of functionally active, regulatory Th3 cells.
TGF-β and α-MSH induce regulatory T cell activity. Primed T cells were TCR-stimulated in the presence or absence of 30 pg/ml α-MSH with TGF-β1 or TGF-β2 (5.0 ng/ml) added 4 hours after TCR-stimulation. The treated T cells (Regulatory T cells) were added to cultures of freshly activated primed T cells. Culture supernatants were assayed for IFN-γ 48 hours after addition of treated T cells. Data are presented as percent suppression±SEM of IFN-γ produced by freshly activated T cells with no added regulatory cells, from eight independent experiments.

## α-melanocyte stimulating hormone (SYSMEHFRWGKPV; not fully specified; ends and bridges not checked; UniProt P01189 138-150, looked up) [α-MSH, synthetic α-MSH (Peninsula Laboratories); thirteen-amino acid neuropeptide derived from POMC]
CD25+ CD4+ T cells
  percentage of CD25+ CD4+ cells: did not change
[1]
  severity of experimental autoimmune uveitis (EAU): significantly suppressed
EAU
  severity of inflammation and recovery in EAU: suppress the severity of the inflammation and accelerate recovery
Primed T cells
  TCR-stimulated T cell proliferation: no affect; also recorded: no effect
Primed Th1 cells; α-MSH 30 pg/ml only at first stimulation, restimulated Day 2 and Day 5 without α-MSH, then coculture 48 h
  IFN-γ in cocultures with T cells initially activated in the presence of α-MSH, long term: significantly (p=0.05) suppressed
Primed Th1 cells; α-MSH 30 pg/ml or TGF-β 5.0 ng/ml
  induction of regulatory T cell activity (suppression of IFN-γ of other Th1 cells), factor individually: induced regulatory T cell activity
